Assay results published in PMC3277864 (Molecular Pharmaceutics, 2011).
Where a SMILES comes first, the peptide text is derived from it. [ ]: non-standard residue; d: D form. The star is where a group is joined. Dolaproine = CO[C@@H]([C@@H]1CCCN1)[C@@H](C)C(=O)O; Dil = CC[C@H](C)[C@H](NC)[C@@H](CC(=O)O)OC; X1 = C[C@@H](N*)[C@@H](O)c1ccccc1; NMeV = CN[C@H](C(=O)O)C(C)C

Experiments:
4T1 mammary carcinoma = details: murine breast cancer 4T1 model, 0.5 mg/kg; cited from earlier work
MDA-MB-435 cells [1] = assay: Cytotoxicity assay; type: cell-based, human; details: 48 hrs incubation
MDA-MB-435 cells [2] = details: 72 hrs incubation period; cited from earlier work
HEK-293L cells = assay: Cytotoxicity assay; type: cell-based, human; details: 48 hrs incubation
BALB/c mice = assay: Gross toxicity of mice; type: in vivo, mouse

## CC[C@H](C)[C@@H]([C@@H](CC(=O)N1CCC[C@H]1[C@H](OC)[C@@H](C)C(=O)N[C@H](C)[C@@H](O)c1ccccc1)OC)N(C)C(=O)[C@@H](NC(=O)[C@@H](NC)C(C)C)C(C)C [MMAE, 1, monomethylauristatin E] (H-[NMeV]V[Dil][Dolaproine]-X1)
4T1 mammary carcinoma
  Animal death in 4T1 study: all animals died
MDA-MB-435 cells [1]
  In vitro cytotoxicity (comparison in words): more potent than the prodrugs 3 and 8
MDA-MB-435 cells [2]
  Activities to MDA-MB-435 cells: subnanomolar to low nanomolar activities
HEK-293L cells
  In vitro cytotoxicity (comparison in words): more potent than the prodrugs 3 and 8
BALB/c mice
  Dose beyond which found considerably toxic to mice: 0.1 mg/kg
BALB/c mice; i.p. 5x, dose 0.1 mg/kg
  Death (%): 20%
BALB/c mice; i.p. 5x, dose 0.1 mg/kg, weighed for 3 weeks
  Wt. loss (%): 33.4%
BALB/c mice; i.p. 5x, dose 0.5 mg/kg
  Death (%): 100%
BALB/c mice; i.p. 5x, dose 1.5 mg/kg
  Death (%): 100%
